Laboratory results taken from ChEMBL document CHEMBL1201862, “PubChem BioAssay data set” (2004).
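Briefly, cells in 96-well plates were exposed to five compound concentrations for 48 h, and endpoints were estimated by linear interpolation. GI50 marks 50% less growth.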 Activity calls are given as the source filed them. Rule as the data show it: active = GI50 up to about 1.1 µM and inactive = higher. Where a SMILES comes first, the peptide text is derived from it. [ ]: non-standard residue; d: D form. The star is where a group is joined. Phe(4-NO2) = N[CH](Cc1ccc([N+](=O)[O-])cc1)C(=O)O; Boc = CC(C)(C)OC(=O)*

What was measured:
Experiment in all cases: NCI-60 cell line screen, 48 h
NCI-H460 = tested on: NCI-H460
KM12 = tested on: KM12
LOX IMVI = tested on: LOX IMVI
SW-620 = tested on: SW-620
HL-60 = tested on: HL-60
SK-MEL-28 = tested on: SK-MEL-28
ACHN = tested on: ACHN
HCC 2998 = tested on: HCC 2998
UACC-62 = tested on: UACC-62
OVCAR-8 = tested on: OVCAR-8
SNB-19 = tested on: SNB-19
A498 = tested on: A498
K562 = tested on: K562
Malme-3M = tested on: Malme-3M
IGROV-1 = tested on: IGROV-1
NCI-H23 = tested on: NCI-H23
T47D = tested on: T47D
MDA-MB-435 = tested on: MDA-MB-435
MDA-MB-231 = tested on: MDA-MB-231
Hs-578T = tested on: Hs-578T

Measured: GI50

CCCCOC(=O)CNC(=O)OC/C=C/C#CC#C/C=C/COC(=O)NCC(=O)OCCCC
inactive: NCI-H460 > 10 µM | KM12 > 10 µM | LOX IMVI > 10 µM | SW-620 > 100 µM | HL-60 > 10 µM | SK-MEL-28 > 10 µM | ACHN > 10 µM | HCC 2998 > 10 µM | UACC-62 > 10 µM | OVCAR-8 > 10 µM | SNB-19 > 10 µM | A498 > 10 µM | K562 > 10 µM | Malme-3M > 10 µM | IGROV-1 > 10 µM | NCI-H23 > 10 µM

C=C(CCC/C(C)=C/C=C/[C@@H](C)CCCc1ccoc1)C[C@@H]1OC(=O)[C@H](C)[C@@H]1O
inactive: NCI-H460 11 µM | KM12 7.24 µM | LOX IMVI 9.71 µM | SW-620 11.4 µM | T47D 8.36 µM | SK-MEL-28 10.1 µM | ACHN 7.59 µM | HCC 2998 11.6 µM | UACC-62 5.27 µM | OVCAR-8 10.1 µM | SNB-19 9.25 µM | MDA-MB-435 7.96 µM | A498 7.26 µM | K562 21.5 µM | Malme-3M 8.91 µM | IGROV-1 10.7 µM | NCI-H23 8.09 µM | MDA-MB-231 7.48 µM

Nc1ccc(Oc2ccc(C3(c4ccc(Oc5ccc(N)c(O)c5)cc4)C4CC5C6CC7CC5C3C(C7)C6C4)cc2)cc1O
inactive: NCI-H460 2.41 µM | KM12 1.86 µM | LOX IMVI 2.1 µM | SW-620 2.18 µM | HL-60 2.44 µM | ACHN 1.75 µM | HCC 2998 1.85 µM | UACC-62 4.02 µM | OVCAR-8 1.8 µM | SNB-19 3.3 µM | MDA-MB-435 1.53 µM | A498 2.55 µM | K562 2.19 µM | Hs-578T 3.13 µM | Malme-3M 3.23 µM | IGROV-1 2.2 µM | NCI-H23 2.47 µM | MDA-MB-231 1.89 µM

Cn1ncc2ccc3[nH]c4ccccc4c(=O)c3c21
inactive: NCI-H460 28.7 µM | KM12 38.3 µM | LOX IMVI 18.7 µM | SW-620 26.2 µM | HL-60 27.9 µM | SK-MEL-28 36.3 µM | ACHN 22.6 µM | HCC 2998 31.4 µM | UACC-62 16.9 µM | OVCAR-8 28.1 µM | SNB-19 38.3 µM | A498 22.4 µM | K562 31.6 µM | Malme-3M 30.1 µM | IGROV-1 39.9 µM | NCI-H23 20.6 µM

COc1cc(C(C)c2cc3c(cc2OCCOCCOc2cc4c(cc2C(C)c2cc(OC)c(OC)c(OC)c2)OCO4)OCO3)cc(OC)c1OC (stereo unspecified)
inactive: NCI-H460 > 10 µM | KM12 > 10 µM | LOX IMVI > 10 µM | SW-620 > 10 µM | HL-60 > 10 µM | SK-MEL-28 > 10 µM | ACHN > 10 µM | HCC 2998 > 10 µM | UACC-62 > 10 µM | OVCAR-8 > 10 µM | SNB-19 > 10 µM | A498 > 10 µM | K562 36.1 µM | Malme-3M > 10 µM | IGROV-1 > 10 µM | NCI-H23 > 10 µM

CC1(c2cccc(N)c2)C2C(=O)NC(=O)C1C(=O)NC2=O (stereo unspecified)
inactive: NCI-H460 33 µM | KM12 23.6 µM | LOX IMVI 28.1 µM | SW-620 34 µM | HL-60 19.6 µM | SK-MEL-28 38.6 µM | ACHN 28.2 µM | HCC 2998 52.2 µM | UACC-62 33.3 µM | OVCAR-8 35.9 µM | SNB-19 29.2 µM | A498 23.4 µM | K562 24.2 µM | Malme-3M 31.1 µM | IGROV-1 44.3 µM | NCI-H23 22.1 µM

CSC1=Nc2ccccc2-c2nc(-c3ccccc3)cc(-c3ccccc3)c2C1
inactive: NCI-H460 5.12 µM | KM12 24.9 µM | LOX IMVI 23.2 µM | SW-620 15.7 µM | T47D 10.4 µM | HL-60 > 100 µM | SK-MEL-28 35.6 µM | ACHN 12.4 µM | HCC 2998 41.6 µM | UACC-62 9.77 µM | OVCAR-8 9.98 µM | SNB-19 6.4 µM | MDA-MB-435 22.2 µM | A498 9.93 µM | K562 30.8 µM | IGROV-1 10 µM | NCI-H23 12.4 µM | MDA-MB-231 14.2 µM

Cc1c(N2C(=O)C(Cl)C2/C=C/c2ccccc2)c(=O)n(-c2ccccc2)n1C (stereo unspecified)
inactive: NCI-H460 26.7 µM | KM12 12.7 µM | LOX IMVI 17.3 µM | SW-620 24.2 µM | T47D 19.8 µM | HL-60 20.1 µM | ACHN 20.3 µM | UACC-62 14.9 µM | OVCAR-8 22.1 µM | MDA-MB-435 12.1 µM | K562 6.58 µM | Malme-3M 5.75 µM | IGROV-1 17.1 µM | NCI-H23 7.59 µM | MDA-MB-231 25.4 µM

COc1cc(CC(C)=O)cc(OC)c1
inactive: NCI-H460 > 100 µM | SW-620 65.6 µM | T47D 53.8 µM | HL-60 27.3 µM | SK-MEL-28 > 100 µM | ACHN 76.7 µM | HCC 2998 > 100 µM | UACC-62 60.3 µM | OVCAR-8 > 100 µM | SNB-19 > 100 µM | MDA-MB-435 41 µM | A498 35 µM | K562 33.3 µM | Malme-3M 51.2 µM | IGROV-1 74.1 µM | NCI-H23 > 100 µM | MDA-MB-231 36.3 µM

CCN1CCCC(C#N)(c2ccccc2)CC1 (stereo unspecified)
inactive: NCI-H460 > 100 µM | KM12 > 100 µM | SW-620 > 100 µM | T47D > 100 µM | HL-60 > 100 µM | SK-MEL-28 > 100 µM | ACHN > 100 µM | HCC 2998 > 100 µM | OVCAR-8 > 100 µM | SNB-19 > 100 µM | A498 > 100 µM | K562 > 100 µM | Hs-578T 61.7 µM | Malme-3M > 100 µM | IGROV-1 > 100 µM | NCI-H23 > 100 µM

CN(C)CCCNC(=S)S
inactive: NCI-H460 > 100 µM | KM12 > 100 µM | LOX IMVI > 100 µM | SW-620 > 100 µM | HL-60 > 100 µM | SK-MEL-28 > 100 µM | ACHN > 100 µM | OVCAR-8 > 100 µM | SNB-19 > 100 µM | MDA-MB-435 > 100 µM | A498 > 100 µM | K562 > 100 µM | Hs-578T > 100 µM | Malme-3M > 100 µM | IGROV-1 > 100 µM | NCI-H23 > 100 µM | MDA-MB-231 > 100 µM

CCOC(=O)c1cn(Cc2ccccc2)c(=O)n1Cc1ccccc1
inactive: NCI-H460 > 100 µM | KM12 > 100 µM | LOX IMVI > 100 µM | SW-620 > 100 µM | HL-60 6.93 µM | SK-MEL-28 > 100 µM | ACHN > 100 µM | HCC 2998 > 100 µM | UACC-62 > 100 µM | OVCAR-8 > 100 µM | SNB-19 > 100 µM | A498 > 100 µM | K562 52 µM | Malme-3M > 100 µM | IGROV-1 > 100 µM | NCI-H23 > 100 µM

CC(C)(O)[C@@H]1CC[C@@]2(C)CCCC(O)C2(O)C1 (stereo partly specified)
inactive: NCI-H460 > 100 µM | KM12 > 100 µM | LOX IMVI > 100 µM | SW-620 > 100 µM | HL-60 > 100 µM | SK-MEL-28 > 100 µM | ACHN > 100 µM | HCC 2998 > 100 µM | UACC-62 > 100 µM | OVCAR-8 > 100 µM | SNB-19 > 100 µM | A498 > 100 µM | K562 > 100 µM | Malme-3M > 100 µM | IGROV-1 > 100 µM | NCI-H23 > 100 µM

C[C@H]1C(OCCOC2O[C@@H]3O[C@@]4(C)CC[C@H]5[C@H](C)CCC([C@H]2C)[C@@]35O4)O[C@@H]2O[C@@]3(C)CC[C@H]4[C@H](C)CCC1[C@@]24O3 (stereo partly specified)
inactive: NCI-H460 22.6 µM | KM12 27.5 µM | LOX IMVI 23.7 µM | SW-620 44.4 µM | T47D 10.6 µM | HL-60 24.9 µM | SK-MEL-28 61.5 µM | ACHN 40.3 µM | HCC 2998 21.6 µM | UACC-62 61.2 µM | OVCAR-8 5.3 µM | SNB-19 33.9 µM | MDA-MB-435 38.4 µM | A498 46.7 µM | K562 > 100 µM | Malme-3M 15.8 µM | IGROV-1 24.8 µM | NCI-H23 31.6 µM | MDA-MB-231 27.2 µM

CCOC(=O)CCC(NC(=O)C(Cc1ccc([N+](=O)[O-])cc1)NC(=O)OC(C)(C)C)C(=O)NC(CCC(=O)OCC)C(=O)OCC (stereo unspecified) (Boc-[Phe(4-NO2)]-Glu(OEt)-Glu(OEt)-OEt; configuration not given here)
inactive: NCI-H460 23.4 µM | KM12 11.7 µM | SW-620 17.9 µM | HL-60 14.9 µM | SK-MEL-28 15.6 µM | ACHN 17.4 µM | HCC 2998 15.8 µM | UACC-62 16.8 µM | OVCAR-8 18.5 µM | SNB-19 95.9 µM | A498 19.5 µM | K562 > 10 µM | Hs-578T 18.7 µM | Malme-3M 18.2 µM | IGROV-1 20.3 µM | NCI-H23 17.9 µM | MDA-MB-231 27 µM

O=C1CCC(N2C(=O)c3ccccc3C2=O)C(=O)N1 (stereo unspecified) [THALIDOMIDE]
inactive: NCI-H460 > 100 µM | KM12 > 100 µM | SW-620 > 100 µM | T47D > 100 µM | ACHN > 100 µM | HCC 2998 > 100 µM | UACC-62 > 100 µM | OVCAR-8 > 100 µM | SNB-19 > 100 µM | MDA-MB-435 > 100 µM | K562 > 100 µM | Hs-578T > 100 µM | Malme-3M > 100 µM | IGROV-1 > 100 µM | NCI-H23 > 100 µM
